Reference: patent US10906938B2, “Cell epitopes and combination of cell epitopes for use in the immunotherapy of myeloma and other cancers” (Immatics Biotechnologies GmbH, priority 2015, dated 2021)

Tests used:
MM.1S cells = assay: HLA class I ligand presentation upon carfilzomib treatment on MM.1S cells (LC-MS/MS); format: cell-based, human; set-up: key to modulation upon carfilzomib-treatment 24 #1 / modulation upon carfilzomib-treatment 24 #2 / modulation upon carfilzomib-treatment 24 #3 / modulation upon carfilzomib-treatment 48 #1 / modulation upon carfilzomib-treatment 48 #2 / modulation upon carfilzomib-treatment 48 #3: −1: significantly down-modulated; 0: not signifcant/not detected; 1: significantly up-modulated; settings: MM.1S cells; for modulation upon carfilzomib-treatment 24 #1 / modulation upon carfilzomib-treatment 24 #2 / modulation upon carfilzomib-treatment 24 #3: 24 h after carfilzomib treatment (100 nM, 1 h); for modulation upon carfilzomib-treatment 24 #1 / modulation upon carfilzomib-treatment 48 #1: biological replicate #1; for modulation upon carfilzomib-treatment 24 #1 / modulation upon carfilzomib-treatment 24 #2 / modulation upon carfilzomib-treatment 24 #3 / modulation upon carfilzomib-treatment 48 #1 / modulation upon carfilzomib-treatment 48 #2 / modulation upon carfilzomib-treatment 48 #3: vs mock-treated controls; for modulation upon carfilzomib-treatment 24 #2 / modulation upon carfilzomib-treatment 48 #2: biological replicate #2; for modulation upon carfilzomib-treatment 24 #3 / modulation upon carfilzomib-treatment 48 #3: biological replicate #3; for modulation upon carfilzomib-treatment 48 #1 / modulation upon carfilzomib-treatment 48 #2 / modulation upon carfilzomib-treatment 48 #3: 48 h after carfilzomib treatment (100 nM, 1 h)
Protocol: (§1) HLA class I and II molecules were isolated using standard immunoaffinity purification as described using the pan-HLA class I specific mAb W6/32, the pan-HLA class II specific mAb T039 and the HLA-DR specific mAB L243 (produced in house).
(§2) HLA ligand extracts were analyzed in 5 technical replicates as described previously. In brief, peptide samples were separated by nanoflow HPLC (RSLCnano, ThermoFisher) using a 50 μm×25 cm PepMap RSLC column (Thermo Fisher) and a gradient ranging from 2.4 to 32.0% acetonitrile over the course of 90 min. Eluting peptides were analyzed in an online coupled LTQ Orbitrap XL mass spectrometer (Thermo Fisher) using a top 5 CID (collision induced dissociation) fragmentation method.
(§3) Data processing was performed as described previously. In brief, the Mascot search engine (Mascot 2.2.04; Matrix Science, London, UK) was implemented to search the human proteome as comprised in the Swiss-Prot database (20,279 reviewed protein sequences, September 2013) without enzymatic restriction. Potential mutated HLA ligands were searched implementing a database containing the human proteome concatenated with proteins containing single amino acid variants (SAVs) listed in the COSMIC database (http://cancer.sanger.ac.uk/cosmic/). Only recurrent SAVs described in 2 or more samples of hematological origin were included. Oxidized methionine was allowed as a dynamic modification. The false discovery rate was estimated using the Percolator algorithm and set to 5%. Peptide lengths were limited to 8-12 amino acids for HLA class I and 12-25 amino acids for HLA class II. Protein inference was disabled, allowing for multiple protein annotations of peptides. HLA annotation was performed using SYFPEITHI [46] or an extended in-house database. Experimental validation of peptide identifications and HLA annotations was performed by mass spectrometric and functional characterization of synthetic peptides for a subset of peptides.
(§4) The inventors quantitatively assessed HLA class I ligand presentation during proteasome inhibitor therapy. Observed was a considerable plasticity of the HLA class I ligandome after treatment with carfilzomib with 17.9±1.1% of MM.1S ligands and 11.2±0.7% of U266 ligands (mean of three biological replicates ±s.d.) showing significant modulation (fold-change ≥4, Po0.01 after Benjamini-Hochberg correction) at t24 h compared with mock-treated controls. Briefly, Cultured MCLs (MM.1S and U266) and primary myeloma samples were incubated with carfilzomib (100 nM, Kyprolis®, available, e.g., from Onyx Pharmaceuticals, Inc.) as an example for a proteasome inhibitor for a 1-h period, followed by three washes in PBS (Gibco) and recultured for additional 24 or 48 h. Controls were incubated with vehicle control (glucose 5%) for 1 h, followed by identical washing and incubation for 24 or 48 h. Experiments were conducted in three biological replicates where indicated.

U266 cells = assay: HLA class I ligand presentation upon carfilzomib treatment on U266 cells (LC-MS/MS); format: cell-based, human; set-up: key to modulation upon carfilzomib-treatment 24 #1 / modulation upon carfilzomib-treatment 24 #2 / modulation upon carfilzomib-treatment 24 #3 / modulation upon carfilzomib-treatment 48 #1 / modulation upon carfilzomib-treatment 48 #2 / modulation upon carfilzomib-treatment 48 #3: −1: significantly down-modulated; 0: not signifcant/not detected; 1: significantly up-modulated; settings: U266 cells, vs mock-treated controls; for modulation upon carfilzomib-treatment 24 #1 / modulation upon carfilzomib-treatment 24 #2 / modulation upon carfilzomib-treatment 24 #3: 24 h after carfilzomib treatment (100 nM, 1 h); for modulation upon carfilzomib-treatment 24 #1 / modulation upon carfilzomib-treatment 48 #1: biological replicate #1; for modulation upon carfilzomib-treatment 24 #2 / modulation upon carfilzomib-treatment 48 #2: biological replicate #2; for modulation upon carfilzomib-treatment 24 #3 / modulation upon carfilzomib-treatment 48 #3: biological replicate #3; for modulation upon carfilzomib-treatment 48 #1 / modulation upon carfilzomib-treatment 48 #2 / modulation upon carfilzomib-treatment 48 #3: 48 h after carfilzomib treatment (100 nM, 1 h)
Protocol: as §1, §2, §3, §4

Sequence | modulation upon carfilzomib-treatment 24 #1 (MM.1S cells) | modulation upon carfilzomib-treatment 24 #2 (MM.1S cells) | modulation upon carfilzomib-treatment 24 #3 (MM.1S cells) | modulation upon carfilzomib-treatment 48 #1 (MM.1S cells) | modulation upon carfilzomib-treatment 48 #2 (MM.1S cells) | modulation upon carfilzomib-treatment 48 #3 (MM.1S cells) | modulation of peptide presentation upon carfilzomib treatment (MM.1S cells; 24 h after carfilzomib treatment) | modulation upon carfilzomib-treatment 24 #1 (U266 cells) | modulation upon carfilzomib-treatment 24 #2 (U266 cells) | modulation upon carfilzomib-treatment 24 #3 (U266 cells) | modulation upon carfilzomib-treatment 48 #1 (U266 cells) | modulation upon carfilzomib-treatment 48 #2 (U266 cells) | modulation upon carfilzomib-treatment 48 #3 (U266 cells)
RYSPVLSRF | 0 | 0 | 0 | 0 | 0 | 0 | – | – | – | – | – | – | –
EYGHIPSF | 1 | 1 | 0 | 0 | 0 | 0 | – | – | – | – | – | – | –
FAQIISVALI | 0 | 0 | 0 | 0 | 0 | 0 | – | – | – | – | – | – | –
TASPLVKSV | 0 | 0 | 0 | 0 | 1 | 0 | – | – | – | – | – | – | –
NEVIMTIGF | 0 | 0 | 0 | 0 | 1 | 0 | – | – | – | – | – | – | –
LAFPGEMLL | 0 | 0 | 0 | 0 | 0 | 0 | – | – | – | – | – | – | –
RYLDLFTSF | −1 | −1 | −1 | 0 | −1 | −1 | – | – | – | – | – | – | –
VPLPPKGRVL | 0 | 0 | 0 | 0 | 0 | 0 | – | – | – | – | – | – | –
LAFPGEMLL (listed as Homo sapiens) [SEQ ID NO: 107] | – | – | – | – | – | – | no significant modulation | – | – | – | – | – | –
RPHGGKSL | 0 | 0 | 0 | 0 | 0 | 0 | – | – | – | – | – | – | –
VPLTRVSGGAA | 1 | 1 | 1 | 1 | 1 | 1 | – | – | – | – | – | – | –
AFIQAGIFQEF | −1 | 0 | −1 | 0 | 0 | −1 | – | – | – | – | – | – | –
YVFPGVTRL | 0 | 0 | 0 | −1 | 0 | 0 | – | – | – | – | – | – | –
APFQGDQRSL | – | – | – | – | – | – | – | 0 | 1 | 1 | 0 | 1 | 0
KTEVHIRPK | – | – | – | – | – | – | – | 0 | 0 | 0 | 0 | 0 | 0
ILRDGITAGK | – | – | – | – | – | – | – | 0 | 0 | 0 | 0 | 0 | 0
KEGLILPETL | – | – | – | – | – | – | – | 1 | 1 | 0 | 0 | 0 | 0
SEFDFFERL | 0 | 0 | 0 | 0 | 0 | −1 | – | – | – | – | – | – | –
LPPPPHVPL | – | – | – | – | – | – | – | 0 | 0 | 0 | 0 | 0 | 0
RPFHGWTSL | – | – | – | – | – | – | – | 0 | 0 | 0 | 0 | 0 | 0
AEQEIARLVL | – | – | – | – | – | – | – | 0 | 0 | 0 | 0 | 0 | 0
KAMEAASSL | – | – | – | – | – | – | – | −1 | −1 | −1 | −1 | −1 | −1
FLWDEGFHQL | – | – | – | – | – | – | – | 0 | 0 | 0 | 0 | 0 | 0
GPRPITQSEL | – | – | – | – | – | – | – | 0 | 0 | 0 | 0 | 0 | 0
KAVNPGRSL | – | – | – | – | – | – | – | 0 | 0 | 0 | 0 | 0 | 0
YLYITKVLK | – | – | – | – | – | – | – | 0 | 0 | 0 | 0 | 0 | 0
RVAKTNSLR | – | – | – | – | – | – | – | 0 | 0 | 0 | 0 | 0 | 0
